Values quoted from earlier work in US10466148B2, “Use of platinum wire electrode and synthetic fiber for flow assisted electro-enhanced solid phase microextraction” (KING FAHD UNIVERSITY OF PETROLEUM AND MINERALS, priority 2015, dated 2019).

Tests used:
[1] = not given; remark: listed apart in the source
[2] = not given; remark: listed apart in the source
[3] = not given; remark: listed apart in the source

SMILES | Henry's law constant at 20° C. | Diffusion coefficient in air [1] [cm^2 s^−1] | Diffusion coefficient in water [2] [cm^2 s^−1] | Vapor pressure at 20-25° C. [3] [mmHg]
Brc1ccc(Oc2ccccc2)cc1 [BPPE, 4-bromophenyl phenyl ether] | 0.009 | 0.047 | 6.27E−06 | 0.0005
Clc1ccc(Oc2ccccc2)cc1 [CPPE, 4-chlorophenyl phenyl ether] | 0.012 | 0.048 | 6.18E−06 | 0.0016
